# Laboratory results from PMC11466185, “Mechanisms and efficacy of small molecule latency-promoting agents to inhibit HIV reactivation ex vivo” (JCI Insight, 2024).
# Where two headings read alike, the source gives them in different places.
# Tests used:
# [1] = system: HIV transcripts (TAR, LLTR, Pol, PolyA, TatRev); assay: Baseline HIV transcription without activation, PBMCs from ART-suppressed PWH, 24 hours; assay type: cell-based; settings: no activation; for LLTR HIV transcripts (DMSO = 100) / Pol HIV transcripts (DMSO = 100) / PolyA HIV transcripts (DMSO = 100) / Tat-Rev HIV transcripts (DMSO = 100) / TAR HIV transcripts (DMSO = 100): ruxolitinib 4μM, dinaciclib 8nM, AZD4573 8nM, pladienolide B 10nM, KRIBB11 2.5μM
# Procedure: For a selection of the compounds, we evaluated the ability to reduce baseline HIV transcription without activation. PBMCs were cultured in the presence of individual drugs in DMSO or DMSO alone as a control and harvested after 24 hours. For each drug, we tested PBMCs from at least 3 PWH, as indicated in Supplemental Figure 5B. […] Likewise, pladienolide B appeared to reduce the level of multiply spliced transcripts (33%, Supplemental Figure 5, A and B).
# PBMCs were isolated from fresh venous blood from 16 ART-suppressed HIV-infected study participants using Ficoll density gradient centrifugation. The cells were seeded at 6 × 10^6 cells/well and cultured with antiretrovirals (nevirapine and indinavir) to prevent new infection. On the next day, PBMCs were activated with anti-CD3/CD28–coated beads (Invitrogen) in the presence of 20 U/mL IL-2 and individual drugs in DMSO or DMSO alone as a control. Since we were limited in the PBMC yield per study participant, different study participants were used for different experiments (such as the initial screen, dose response, different time points, and studies in activated vs. unstimulated cells). In addition, the yields of PBMCs were sometimes insufficient to test all drugs for a given question or experiment.
# Total cellular DNA and RNA were extracted in parallel using Trireagent (Molecular Research Center) according to the manufacturer’s instructions, except for study participants 2147 and 2461 (Figure 4), for whom DNA and RNA were extracted using the QIAGEN AllPrep DNA/RNA/miRNA Universal Kit with on-column DNase I treatment of the RNA and the manufacturer’s modification to enhance recovery of short transcripts. RNA and DNA concentrations were measured using UV spectrophotometry (NanoDrop One, Thermo Fisher Scientific). Total initiated HIV (TAR) transcripts were quantified by a 3-step polyadenylation RT-ddPCR as described previously ([8], [84]). HIV 5′ elongated (LLTR), midtranscribed (Pol), completed (PolyA), and multiply spliced (TatRev) transcripts were quantified by a 2-step RT-ddPCR as previously described ([8]). The levels of each HIV transcript were normalized to 1 μg of total cellular RNA and expressed as a percentage of the (activated) DMSO control. To quantify virion-associated RNA in supernatant, RNA was extracted from 400 μL supernatant using Trireagent-LS (Molecular Research Center) according to the manufacturer’s instructions. Levels of U3-polyadenylated HIV RNA were measured in the supernatant by RT-ddPCR, normalized to copies/mL, and expressed as a percentage of the activated DMSO. For measuring the HIV infection frequency at day 6, the HIV DNA U3-U5 LTR region was quantified by using ddPCR as described previously ([8]). HIV DNA copies were normalized to cell numbers according to the mass of DNA input per well (calculated from the DNA concentration and input volume) ([85]).
# Figure S5. CDK-inhibitors appear to decrease baseline HIV splicing even in the absence of T cell activation. Each drug was tested in PBMCs from at least three ART-suppressed study participants and PBMCs were aliquoted into wells at 6x10^6 cells/well. The cells were cultured with antiretrovirals but without activation in the presence of individual drugs in (1 picture or pasted object on this page, not shown here)
# DMSO or DMSO alone as control. After 24h, total RNA was extracted and the progression through different stages of HIV transcription was quantified by measuring the levels of initiated (TAR), 5’ elongated (LLTR), mid-transcribed/unspliced (Pol), completed (PolyA) and multiply spliced (TatRev) HIV transcripts. A-B) The levels of all HIV transcripts were quantified, normalized to 1 µg of total cellular RNA, and expressed as a percent of the DMSO control (% of DMSO). A) Medians are shown, as well as the values of the individual study participants in different colors. B) The medians from panel A) are presented. The effect of each drug on the different transcripts was studied in three to six study participants, as […]
# [2] = system: HIV transcripts (PolyA, TatRev); assay: Dose-response curves of LPAs: polyadenylated and multiply spliced HIV transcripts 24 hours after activation; assay type: cell-based; settings: for PolyA (dose-response) / MS Tat-Rev (dose-response): 24 hours, 1 participant per drug; for IC50: Human immunodeficiency virus 1, PBMC, 24 h, PBMCs from 1 participant per drug
# Procedure: The IC50 was determined based on the reduction in completed (PolyA) as well as multiply spliced (TatRev) HIV transcripts relative to activated DMSO (Table 1).
# Figure 2 Dose-response curves of LPAs. Dose-response curves for each drug were generated in PBMCs from 1 ART-suppressed study participant per drug. PBMCs were aliquoted into wells at 6 × 10^6 cells/well, activated, and cultured with antiretrovirals in the presence of DMSO alone (no drug) or varying concentrations of individual drugs in DMSO. After 24 hours, the levels of polyadenylated and multiply spliced HIV transcripts were quantified by RT-ddPCR, normalized to 1 μg of total cellular RNA, and expressed as a percentage of the activated DMSO control (% of activated DMSO).
# [3] = participant 5557 (DMSO cell empty)
Structure (SMILES),LLTR HIV transcripts (DMSO = 100) ([1]; participant 156),Pol HIV transcripts (DMSO = 100) ([1]; participant 156),PolyA HIV transcripts (DMSO = 100) ([1]; participant 156),Tat-Rev HIV transcripts (DMSO = 100) ([1]; participant 156),LLTR HIV transcripts (DMSO = 100) ([1]; participant 163),Pol HIV transcripts (DMSO = 100) ([1]; participant 163),PolyA HIV transcripts (DMSO = 100) ([1]; participant 163),Tat-Rev HIV transcripts (DMSO = 100) ([1]; participant 163),LLTR HIV transcripts (DMSO = 100) ([1]; participant 1379),Pol HIV transcripts (DMSO = 100) ([1]; participant 1379),PolyA HIV transcripts (DMSO = 100) ([1]; participant 1379),TAR HIV transcripts (DMSO = 100) ([1]; participant 1379),LLTR HIV transcripts (DMSO = 100) ([1]; participant 2027),Pol HIV transcripts (DMSO = 100) ([1]; participant 2027),PolyA HIV transcripts (DMSO = 100) ([1]; participant 2027),TAR HIV transcripts (DMSO = 100) ([1]; participant 2027),also measured
CCc1cnn2c(NCc3ccc[n+]([O-])c3)cc(N3CCCC[C@H]3CCO)nc12 [dinaciclib],121.36,49.08,67.47,0,142.94,207.39,173.7,0,40.3,0,20.95,228.89,82.61,131.38,193.29,248.84,"5′ elongated HIV transcripts without activation compared to DMSO ([1]; 24 hours): did not reduce; Completed HIV transcripts without activation compared to DMSO ([1]; 24 hours): did not reduce; HIV splicing (TatRev/PolyA) without activation ([1]; 24 hours, not statistically significant): severely reduce; LLTR HIV transcripts (DMSO = 100) ([1]; participant 2750): 83.98; Pol HIV transcripts (DMSO = 100) ([1]; participant 2750): 102.74; PolyA HIV transcripts (DMSO = 100) ([1]; participant 2750): 91.99; TAR HIV transcripts (DMSO = 100) ([1]; participant 2750): 108.94; Tat-Rev HIV transcripts (DMSO = 100) ([1]; participant 2750): 0; LLTR HIV transcripts (DMSO = 100) [1, 3]: 59.59; Pol HIV transcripts (DMSO = 100) [1, 3]: 0; TAR HIV transcripts (DMSO = 100) ([1]; participant 5557): 176.06; PolyA (dose-response) ([2]; dose 1 nM): 39.51 % of activated DMSO; PolyA (dose-response) ([2]; dose 4 nM): 6.37 % of activated DMSO; PolyA (dose-response) ([2]; dose 8 nM): 1.62 % of activated DMSO"
N#CC[C@H](C1CCCC1)n1cc(-c2ncnc3[nH]ccc23)cn1 [ruxolitinib],91.78,118.18,108.3,167.91,148.94,91.9,183.43,0,49.44,31.32,9.4,170,57.36,74.54,109.96,90.7,"HIV transcription levels in the absence of T cell activation (in words) ([1]; 24 hours, at least 3 PWH): little effect; IC50 ([2]; reduction in PolyA HIV transcripts relative to activated DMSO, read-out: Completed (PolyA) IC50): 0.27 µM; IC50 ([2]; reduction in TatRev HIV transcripts relative to activated DMSO, read-out: Multiply spliced (TatRev) IC50): 0.26 µM; MS Tat-Rev (dose-response) ([2]; dose 0.4 µM): 41.24 % of activated DMSO; PolyA (dose-response) ([2]; dose 0.4 µM): 33.83 % of activated DMSO; MS Tat-Rev (dose-response) ([2]; dose 1 µM): 15.99 % of activated DMSO; PolyA (dose-response) ([2]; dose 1 µM): 29.83 % of activated DMSO; MS Tat-Rev (dose-response) ([2]; dose 4 µM): 8.19 % of activated DMSO; PolyA (dose-response) ([2]; dose 4 µM): 7.04 % of activated DMSO; MS Tat-Rev (dose-response) ([2]; dose 10 µM): 4.34 % of activated DMSO; PolyA (dose-response) ([2]; dose 10 µM): 4.66 % of activated DMSO"
